From patent US6919375B1, “Sulfonated amino acid derivatives and metalloproteinase inhibitors containing the same” (Shionogi & Co., Ltd., priority 1996, dated 2005) come the findings set out here.

In this experiment the target is T1, Type IV collagenase (MMP-9) (Homo sapiens, UniProt P14780).
T1 construct: made in house; host or cells: endogenous secretion by TPA-stimulated human fibrosarcoma HT 1080 cells; purified from conditioned medium
As to the kind of experiment: Type IV collagenase (MMP-9) inhibition assay, fluorescent substrate kit. It counts as biochemical. Conditions: activated MMP-9 from HT 1080 cells; type IV collagenase activity kit, fluorescent intensity. As to the method: (1) Isolation and Purification of MMP-9 (92 kDa, Gelatinase B)
Type IV collagenase (MMP-9) was purified according to the methods descrived in the following literature.
Subsequently, activated MMP-9 was obtained by treating the pro-MMP-9 with trypsin.
(2) Assay Methods of Type IV Collagenase Inhibitors
Collagenase assay was performed using the activated MMP-9 described above and the substrate supplied in the type IV collagenase activity kit (YAGAI, inc.), according to the manufacturer's protocol. The following 4 assays are performed per compound (inhibitor). • (A) substrate ([…]), enzyme (MMP-9), inhibitor • (B) substrate ([…]), inhibitor • (C) substrate ([…]), enzyme (MMP-9) • (D) substrate ([…])
According to the manufacturer's protocol, fluorescent intensity was measured and percent inhibition was determined by the following equation. Inhibition (%)={1−(A−B)/(C−D;)}×100

T1 sequence (P14780 107-707 limits assumed): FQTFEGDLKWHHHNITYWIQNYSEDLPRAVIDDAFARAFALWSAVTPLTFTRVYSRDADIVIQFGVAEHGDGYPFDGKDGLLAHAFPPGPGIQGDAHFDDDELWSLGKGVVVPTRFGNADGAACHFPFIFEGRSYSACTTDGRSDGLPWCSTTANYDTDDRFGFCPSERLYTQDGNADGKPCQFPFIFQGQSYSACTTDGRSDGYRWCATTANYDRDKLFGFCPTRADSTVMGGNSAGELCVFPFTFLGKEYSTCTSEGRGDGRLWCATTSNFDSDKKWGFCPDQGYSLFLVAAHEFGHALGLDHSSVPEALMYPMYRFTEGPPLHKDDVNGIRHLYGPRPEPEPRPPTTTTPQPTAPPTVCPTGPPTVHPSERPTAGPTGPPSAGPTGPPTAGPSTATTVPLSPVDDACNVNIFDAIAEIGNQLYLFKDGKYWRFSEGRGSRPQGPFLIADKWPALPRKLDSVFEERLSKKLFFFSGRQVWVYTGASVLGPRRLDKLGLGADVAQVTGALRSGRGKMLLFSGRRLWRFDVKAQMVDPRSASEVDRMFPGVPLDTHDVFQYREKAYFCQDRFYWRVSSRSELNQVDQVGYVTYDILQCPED

As usually defined, the IC50 is the concentration that gives 50% inhibition. As for `O=C(NO)C(Cc1nc2ccccc2[nH]1)NS(=O)(=O)c1ccc(-c2ccccc2)cc1` (racemic) [Example 1b.1-35], the IC50 worked out at 21.6 nM.
With `O=C(O)[C@@H](Cc1ccccc1)NS(=O)(=O)c1ccc(-c2nnn(-c3ccccc3)n2)cc1` [Example 1a-5-3] the figure was 210 nM.
In turn, `O=C(NO)[C@@H](Cc1ccccc1)NS(=O)(=O)c1ccc(-c2nnn(-c3ccccc3)n2)cc1` [Example 1b-211] showed an IC50 of 5.65 nM.
